From patent US20210395239A1 (Hoffmann-La Roche Inc., priority 2018, published 2021)
Each block holds one molecule with its values, some of them ahead of it.

Columns and labels:
[1] = target: T1, CYP2D6 (Homo sapiens, UniProt P10635); test: CYP inhibition assay in human liver microsome, CYP2D6; format: in vitro ADME; conditions: substrate dextromethorphan 5 μM, second value of 2C9/2D6/3A4; for inhibition at 10 min, 10 µM: human, human liver microsomes, probe dextromethorphan 5 μM
T1 construct: tissue BD-Gentest 452117; host or cells: human liver microsomes
T1 sequence (P10635 whole entry): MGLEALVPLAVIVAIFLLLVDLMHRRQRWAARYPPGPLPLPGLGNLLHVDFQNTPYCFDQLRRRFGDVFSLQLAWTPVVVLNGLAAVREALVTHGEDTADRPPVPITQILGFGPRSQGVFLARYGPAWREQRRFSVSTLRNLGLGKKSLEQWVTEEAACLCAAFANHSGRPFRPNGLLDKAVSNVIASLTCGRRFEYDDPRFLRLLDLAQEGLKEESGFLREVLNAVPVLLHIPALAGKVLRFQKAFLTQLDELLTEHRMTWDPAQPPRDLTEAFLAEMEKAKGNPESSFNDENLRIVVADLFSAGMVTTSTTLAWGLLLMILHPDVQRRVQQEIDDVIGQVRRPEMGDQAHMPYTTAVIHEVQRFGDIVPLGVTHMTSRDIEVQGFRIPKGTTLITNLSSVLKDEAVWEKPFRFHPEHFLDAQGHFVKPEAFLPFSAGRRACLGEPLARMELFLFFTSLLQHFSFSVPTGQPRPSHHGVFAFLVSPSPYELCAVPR
Method: This is a high throughput screening assay used for assessment of reversible inhibition of CYP2C9, CYP2D6, and CYP3A4 activity of test compounds in human liver microsome (HLM) in early discovery stage.
10 mM DMSO stock solutions of test compounds were diluted in DMSO to generate 2 mM intermediate stock solution. 250 nL, of intermediate stock solution were transferred in duplicate into 3 separate 384 well microtitre plates (assay-ready plates). A mixture of HLM and each substrate was made up. 45 μL of HLM substrate mix was then transferred to each well of an assay ready plate and mixed. The negative (solvent) and positive controls (standard inhibitor for each CYP) were included in each assay ready plate. The assay ready plate was warmed to 37° C. in an incubator over 10 minutes. 5 μL pre-warmed NADPH regenerating system was added to each incubation well to start the reaction. Final incubation volume was 50 μL. The assay plate then was placed back in the 37° C. incubator. After incubation (10 minutes for CYP2D6) for 5 minutes, incubates were quenched by addition of 50 μL 100% acetonitrile containing internal standards (400 ng/mL 13C6-4′-OH-Diclofenac, 20 ng/mL D3-Dextrorphan and 20 ng/mL D4-1′OH-Midazolam). The supernatants were collected for RapidFire/MS/MS analysis.
RapidFire online solid phase extraction/sample injection system (Agilent) coupled with API4000 triple quadrupole mass spectrometer (AB Sciex) were used for sample analysis. The mobile phase composed of acetonitrile and water supplemented with 0.1% formic acid. A C4 solid phase extraction cartridge is used for sample separation. MS detection is achieved in positive ion MRM mode.
Peak areas for substrate, metabolite and internal standard are determined using the RapidFire integrator software (version 3.6.12009.12296). Peak area ratios (PAR) of metabolite and internal standard (stable-labelled metabolite) are then calculated. The measurement window for each experiment is then defined:
PAR (0% activity)=average PAR for all incubations containing concentrated inhibitor; Par (100% activity)=average PAR for all incubations containing no inhibitor (DMSO controls); % Activity (test inhibitor)=[PAR (test inhibitor)−PAR (0% activity)]/[PAR (100% activity)−PAR (0% activity)]; % Inhibition (test inhibitor)=100-% Activity (test inhibitor).

[2] = target: T2, hERG channel (Homo sapiens, UniProt Q12809); test: hERG channel inhibition assay (patch-clamp, CHOhERG cells); format: cell-based; conditions: for IC20: human, CHO cells stably expressing hERG (CHOhERG); for IC20 / IC50: patch-clamp, CHOhERG cells; for hERG IC20/TLR7 IC50 / hERG IC20/TLR8 IC50 / hERG IC20/TLR9 IC50: safety ratio
T2 construct: expressed in transfected cells; host or cells: CHO (Chinese hamster ovary)
T2 sequence (Q12809 whole entry): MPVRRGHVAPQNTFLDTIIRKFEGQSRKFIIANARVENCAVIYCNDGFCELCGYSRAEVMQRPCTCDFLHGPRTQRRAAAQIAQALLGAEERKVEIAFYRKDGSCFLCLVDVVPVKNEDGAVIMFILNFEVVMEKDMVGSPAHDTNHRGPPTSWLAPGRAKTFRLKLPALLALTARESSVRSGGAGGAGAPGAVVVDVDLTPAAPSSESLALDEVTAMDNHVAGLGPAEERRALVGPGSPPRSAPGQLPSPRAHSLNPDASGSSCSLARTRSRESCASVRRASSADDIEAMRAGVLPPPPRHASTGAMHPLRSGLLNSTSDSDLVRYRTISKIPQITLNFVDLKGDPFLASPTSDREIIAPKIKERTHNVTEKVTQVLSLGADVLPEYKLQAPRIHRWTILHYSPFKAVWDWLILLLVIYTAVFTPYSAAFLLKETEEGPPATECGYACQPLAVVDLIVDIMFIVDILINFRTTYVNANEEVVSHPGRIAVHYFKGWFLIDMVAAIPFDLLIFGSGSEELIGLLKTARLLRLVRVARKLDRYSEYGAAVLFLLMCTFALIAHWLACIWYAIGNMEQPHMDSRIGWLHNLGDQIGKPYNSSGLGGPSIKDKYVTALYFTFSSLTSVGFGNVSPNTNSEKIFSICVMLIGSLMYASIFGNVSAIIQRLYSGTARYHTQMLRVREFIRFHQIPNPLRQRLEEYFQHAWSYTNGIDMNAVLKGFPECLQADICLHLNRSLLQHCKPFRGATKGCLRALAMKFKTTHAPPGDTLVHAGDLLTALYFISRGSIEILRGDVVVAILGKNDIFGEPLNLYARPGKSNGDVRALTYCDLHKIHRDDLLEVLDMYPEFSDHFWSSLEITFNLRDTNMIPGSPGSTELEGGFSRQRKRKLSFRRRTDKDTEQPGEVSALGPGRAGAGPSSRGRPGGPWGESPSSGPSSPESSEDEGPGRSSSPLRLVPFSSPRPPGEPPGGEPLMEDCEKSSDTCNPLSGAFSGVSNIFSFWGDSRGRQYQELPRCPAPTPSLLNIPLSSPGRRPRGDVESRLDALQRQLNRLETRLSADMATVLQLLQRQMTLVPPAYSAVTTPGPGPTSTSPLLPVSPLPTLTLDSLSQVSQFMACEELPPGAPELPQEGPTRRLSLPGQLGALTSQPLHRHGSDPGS
In short: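 Whole-cell voltage-clamp recordings used CHO cells stably expressing human hERG, with IKhERG evoked by a voltage protocol at 0.1 Hz. Increasing compound concentrations were applied, each for 3–10 min to reach steady state, and current amplitude and kinetics were expressed relative to control (100%).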

inhibition at 10 min, 10 µM [1]: -4%
Structure (SMILES): COC1CNC[C@H]1Nc1cccc(N2CCN(C[C@H]3CN(c4ccc(C#N)c5ncccc45)C[C@@H](C)O3)CC2)n1 (stereo in doubt) [Example 39, 5-[(2S,6R)-2-[[4-[6-[[(3R,4R)-4-methoxypyrrolidin-3-yl]amino]-2-pyridyl]piperazin-1-yl]methyl]-6-methyl-morpholin-4-yl]quinoline-8-carbonitrile]

CYP (%) 2D6 inhibition [1]: 10.5%
Structure (SMILES): COC1CN(c2nccc(N3CCN(C[C@H]4CN(c5ccc(C#N)c6ncccc56)C[C@@H](C)O4)CC3)n2)C[C@H]1N (stereo in doubt) [Example 52, 5-[(2S,6R)-2-[[4-[2-[(3R,4R)-3-amino-4-methoxy-pyrrolidin-1-yl]pyrimidin-4-yl]piperazin-1-yl]methyl]-6-methyl-morpholin-4-yl]quinoline-8-carbonitrile]

CYP (%) 2D6 inhibition [1]: 21.5%
Structure (SMILES): CO[C@H]1CN(c2nccc(N3CCN(C[C@H]4CN(c5ccc(C#N)c6ncccc56)C[C@@H](C)O4)CC3)n2)CC1N (stereo in doubt) [Example 53, 5-[(2S,6R)-2-[[4-[2-[(3S,4S)-3-amino-4-methoxy-pyrrolidin-1-yl]pyrimidin-4-yl]piperazin-1-yl]methyl]-6-methyl-morpholin-4-yl]quinoline-8-carbonitrile]

inhibition at 10 min, 10 µM [1]: 7.5%
Structure (SMILES): C[C@@H]1CN(c2ccc(C#N)c3ncccc23)C[C@H](CN2CCN(c3cncc(N4CCNCC4)c3)CC2)O1 [Example 7, 5-[(2R,6S)-2-methyl-6-[[4-(5-piperazin-1-yl-3-pyridyl)piperazin-1-yl]methyl]morpholin-4-yl]quinoline-8-carbonitrile]
IC20 [2]: > 10 µM
IC50 [2]: > 20 µM
hERG IC20/TLR7 IC50 [2]: >294
hERG IC20/TLR8 IC50 [2]: >1111
hERG IC20/TLR9 IC50 [2]: >196

inhibition at 10 min, 10 µM [1]: 6%
Structure (SMILES): C[C@@H]1CN(c2ccc(C#N)c3ncccc23)C[C@H](CN2CCN(c3ccc(N4CCNCC4)cn3)CC2)O1 [Example 8, 5-[(2R,6S)-2-methyl-6-[[4-(5-piperazin-1-yl-2-pyridyl)piperazin-1-yl]methyl]morpholin-4-yl]quinoline-8-carbonitrile]

inhibition at 10 min, 10 µM [1]: 2%
Structure (SMILES): C[C@@H]1CN(c2ccc(C#N)c3ncccc23)C[C@H](CN2CCN(c3cc(N4CCNCC4)ccn3)CC2)O1 [Example 9, 5-[(2R,6S)-2-methyl-6-[[4-(4-piperazin-1-yl-2-pyridyl)piperazin-1-yl]methyl]morpholin-4-yl]quinoline-8-carbonitrile]

inhibition at 10 min, 10 µM [1]: 0%
Structure (SMILES): C[C@@H]1CN(c2ccc(C#N)c3ncccc23)C[C@H](CN2CCC(C#N)(c3ccc(N4CCNCC4)cc3)CC2)O1 [Example 11, 5-[(2S,6R)-2-[[4-cyano-4-(4-piperazin-1-ylphenyl)-1-piperidyl]methyl]-6-methyl-morpholin-4-yl]quinoline-8-carbonitrile]

inhibition at 10 min, 10 µM [1]: 16.5%
Structure (SMILES): C[C@@H]1CN(c2ccc(C#N)c3ncccc23)C[C@H](CN2CCN(c3nccc(N4CCNCC4)n3)CC2)O1 [Example 14, 5-[(2R,6S)-2-methyl-6-[[4-(4-piperazin-1-ylpyrimidin-2-yl)piperazin-1-yl]methyl]morpholin-4-yl]quinoline-8-carbonitrile]

inhibition at 10 min, 10 µM [1]: -2.5%
Structure (SMILES): C[C@@H]1CN(c2ccc(C#N)c3ncccc23)C[C@H](CN2CCN(c3ccnc(N4CCNCC4)n3)CC2)O1 [Example 15, 5-[(2R,6S)-2-methyl-6-[[4-(2-piperazin-1-ylpyrimidin-4-yl)piperazin-1-yl]methyl]morpholin-4-yl]quinoline-8-carbonitrile]
IC20 [2]: > 10 µM
IC50 [2]: > 20 µM
hERG IC20/TLR7 IC50 [2]: >1429
hERG IC20/TLR8 IC50 [2]: >3333
hERG IC20/TLR9 IC50 [2]: >278

inhibition at 10 min, 10 µM [1]: 0.5%
Structure (SMILES): C[C@@H]1CN(c2ccc(C#N)c3ncccc23)C[C@H](CN2CCN(c3ccc([C@@H]4CNCCO4)cc3)CC2)O1 [Example 19, 5-[(2R,6S)-2-methyl-6-[[4-[4-[(2R)-morpholin-2-yl]phenyl]piperazin-1-yl]methyl]morpholin-4-yl]quinoline-8-carbonitrile]

inhibition at 10 min, 10 µM [1]: 2.5%
Structure (SMILES): C[C@@H]1CN(c2ccc(C#N)c3ncccc23)C[C@H](CN2CCN(c3cc(N4CCN(C)CC4)ncn3)CC2)O1 [Example 21, 5-[(2R,6S)-2-methyl-6-[[4-[6-(4-methylpiperazin-1-yl)pyrimidin-4-yl]piperazin-1-yl]methyl]morpholin-4-yl]quinoline-8-carbonitrile]

inhibition at 10 min, 10 µM [1]: 2%
Structure (SMILES): C[C@@H]1CN(c2ccc(C#N)c3ncccc23)C[C@H](CN2CCN(c3ccnc(N4CCN(C)CC4)n3)CC2)O1 [Example 22, 5-((2R,6S)-2-methyl-6-((4-(2-(4-methylpiperazin-1-yl)pyrimidin-4-yl)piperazin-1-yl)methyl)morpholino)quinoline-8-carbonitrile]

inhibition at 10 min, 10 µM [1]: 6%
Structure (SMILES): C[C@@H]1CN(c2ccc(C#N)c3ncccc23)C[C@H](CN2CCN(c3ccnc(N[C@H]4CNC[C@H]4F)n3)CC2)O1 [Example 24, 5-[(2S,6R)-2-[[4-[2-[[(3S,4R)-4-fluoropyrrolidin-3-yl]amino]pyrimidin-4-yl]piperazin-1-yl]methyl]-6-methyl-morpholin-4-yl]quinoline-8-carbonitrile]

inhibition at 10 min, 10 µM [1]: 5.5%
Structure (SMILES): C[C@@H]1CN(c2ccc(C#N)c3ncccc23)C[C@H](CN2CCN(c3ccnc(N4CCNCC(O)C4)n3)CC2)O1 (stereo partly drawn) [Example 25, 5-[(2S,6R)-2-[[4-[2-(6-hydroxy-1,4-diazepan-1-yl)pyrimidin-4-yl]piperazin-1-yl]methyl]-6-methyl-morpholin-4-yl]quinoline-8-carbonitrile]

inhibition at 10 min, 10 µM [1]: 8.5%
Structure (SMILES): C[C@@H]1CN(c2ccc(C#N)c3ncccc23)C[C@H](CN2CCN(c3ccnc(N4CCN[C@@H](CO)C4)n3)CC2)O1 [Example 29, 5-[(2S,6R)-2-[[4-[2-[(3R)-3-(hydroxymethyl)piperazin-1-yl]pyrimidin-4-yl]piperazin-1-yl]methyl]-6-methyl-morpholin-4-yl]quinoline-8-carbonitrile]

inhibition at 10 min, 10 µM [1]: 20.5%
Structure (SMILES): C[C@@H]1CN(c2ccc(C#N)c3ncccc23)C[C@H](CN2CCN(c3cccc(NC4CNC4)n3)CC2)O1 [Example 38]
IC20 [2]: 5.5 µM
IC50 [2]: > 20 µM
hERG IC20/TLR7 IC50 [2]: 344
hERG IC20/TLR8 IC50 [2]: 500
hERG IC20/TLR9 IC50 [2]: 57

inhibition at 10 min, 10 µM [1]: -11%
Structure (SMILES): COC1CN(c2ccc(N3CCN(C[C@H]4CN(c5ccc(C#N)c6ncccc56)C[C@@H](C)O4)CC3)cn2)CC1N (stereo partly drawn) [Example 43, 5-[(2S,6R)-2-[[4-[6-(3-amino-4-methoxy-pyrrolidin-1-yl)-3-pyridyl]piperazin-1-yl]methyl]-6-methyl-morpholin-4-yl]quinoline-8-carbonitrile]

inhibition at 10 min, 10 µM [1]: 5%
Structure (SMILES): C[C@@H]1CN(c2ccc(C#N)c3ncccc23)C[C@H](CN2CCN(c3nc(N4CCNCC4)ncc3F)CC2)O1 [Example 45, 5-[(2S,6R)-2-[[4-(5-fluoro-2-piperazin-1-yl-pyrimidin-4-yl)piperazin-1-yl]methyl]-6-methyl-morpholin-4-yl]quinoline-8-carbonitrile]

inhibition at 10 min, 10 µM [1]: 11.5%
Structure (SMILES): C[C@@H]1CN(c2ccc(C#N)n3ncc(F)c23)C[C@H](CN2CCN(c3ccc(N[C@H]4CNC[C@H]4F)nc3)CC2)O1 [Example 167, 3-fluoro-4-[(2S,6R)-2-[[4-[6-[[(3S,4R)-4-fluoropyrrolidin-3-yl]amino]-3-pyridyl]piperazin-1-yl]methyl]-6-methyl-morpholin-4-yl]pyrazolo[1,5-a]pyridine-7-carbonitrile]
IC20 [2]: > 10 µM
IC50 [2]: > 20 µM
hERG IC20/TLR7 IC50 [2]: >714
hERG IC20/TLR8 IC50 [2]: >294
hERG IC20/TLR9 IC50 [2]: >217

inhibition at 10 min, 10 µM [1]: 0%
Structure (SMILES): C[C@@H]1CN(c2ccc(C#N)n3ncc(F)c23)C[C@H](CN2CCN(c3ccc(N4CC5(CN(C)C5)C4)nc3)CC2)O1 [Example 170, 3-fluoro-4-[(2R,6S)-2-methyl-6-[[4-[6-(6-methyl-2,6-diazaspiro[3.3]heptan-2-yl)-3-pyridyl]piperazin-1-yl]methyl]morpholin-4-yl]pyrazolo[1,5-a]pyridine-7-carbonitrile]
